Literature values in patent US11045513B2, “Association of dry extracts of Vicia faba, Uncaria rhyncophylla and liquorice root together with coenzyme Q10 for use as coadjuvant, for improving the quality of life in subjects suffering from movement disorders” (CRISTALFARMA S.R.L., priority 2018, dated 2021).

Target: dopamine D3 receptor (DRD3) (Homo sapiens, UniProt P35462)
Sequence (P35462 whole entry): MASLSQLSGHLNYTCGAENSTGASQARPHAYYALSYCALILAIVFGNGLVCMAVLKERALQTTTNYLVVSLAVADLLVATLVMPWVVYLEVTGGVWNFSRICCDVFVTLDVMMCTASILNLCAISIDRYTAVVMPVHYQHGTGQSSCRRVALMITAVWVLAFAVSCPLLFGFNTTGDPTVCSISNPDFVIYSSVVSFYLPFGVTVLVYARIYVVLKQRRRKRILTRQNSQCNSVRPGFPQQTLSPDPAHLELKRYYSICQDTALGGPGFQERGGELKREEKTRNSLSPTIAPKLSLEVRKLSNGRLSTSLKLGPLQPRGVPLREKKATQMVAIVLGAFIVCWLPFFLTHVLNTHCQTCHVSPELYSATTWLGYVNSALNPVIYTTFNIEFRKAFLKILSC

SMILES: CC1(C)[C@@H](O)CC[C@]2(C)[C@H]3C(=O)C=C4[C@@H]5C[C@@](C)(C(=O)O)CC[C@]5(C)CC[C@@]4(C)[C@]3(C)CC[C@@H]12 [glycyrrhetinic acid]
- binding affinity for the dopamine D3 receptor (DRD3): strong binding affinity
